Source: US12263248B2, “Compounds and compositions for intracellular delivery of therapeutic agents” (ModernaTX, Inc., priority 2018, dated 2025)
“Also recorded” adds a separate entry of the source.

Key:
[1] = Encapsulation efficiency of RNA (QUANT-IT RIBOGREEN RNA assay); type: physicochemical; settings: for EE (%): Table 1A; for % EE: Table 1C, compositions for subcutaneous administration
How it was run: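 RiboGreen fluorescence (ex ~480, em ~520 nm) compared between intact samples and Triton X-100-lysed samples after 15 min at 37 °C in TE buffer, pH 7.5. Percent free RNA is the blank-corrected intact/disrupted ratio.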

IL-6, IP-10 = assay: Cytokine induction in mice upon intravenous administration; type: in vivo; parameters: Cytokine induction IL-6 / Cytokine induction IP-10: unit not given here; settings: 0.5 mpk, 6 hours; for Cytokine induction IL-6 / Cytokine induction IP-10: intravenous
How it was run: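 IL-6 and IP-10 concentrations determined 6 hours after a single intravenous 0.5 mpk dose of lipid nanoparticle formulation in mice, with MC3 and PBS as comparators.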

[2] = Apparent (surface) pKa of the LNP formulation (TNS assay); type: physicochemical
How it was run: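 Fluorescence of TNS probe added to LNP samples (mRNA 0.04 mg/mL) was read across 21 buffers of pH about 3-12, triplicate per pH. The inflection point of the sigmoidal fluorescence-vs-pH curve, […], gives apparent pKa; method validated in 1× PBS and Tris/sucrose buffer.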

luciferase (Luc) mRNA = assay: Luc expression (total flux) after intramuscular administration; type: in vivo, mice; settings: for Total flux, 0.001 mpk Dose / Total flux, 0.01 mpk Dose: 6 hours after intramuscular administration; for Novel lipid/MC3 expression ratio, 6 hr. time point, i.m. Luc: relative to MC3 formulation
How it was run: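 Total-flux luciferase signal in mice after one intramuscular injection. Nanoparticle formulations contained modified Luc mRNA, either alone or co-dosed with H10 mRNA (e.g., 0.0005 or 0.005 mpk of each), giving 0.001 or 0.01 mpk.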

[3] = lipid nanoparticle, ±SD within one assay run (Table 37)

Row | Structure (SMILES) | EE (%) [1] | IL-6 induction (IL-6, IP-10; i.v., in words) | IP-10 induction (IL-6, IP-10; i.v., in words) | Cytokine induction IL-6 (IL-6, IP-10) | Cytokine induction IP-10 (IL-6, IP-10) | pKa ([2]; Table 1A) | Total flux, 0.001 mpk Dose (luciferase (Luc) mRNA; Luc mRNA and H10 mRNA) | Total flux, 0.01 mpk Dose (luciferase (Luc) mRNA; Luc mRNA and H10 mRNA) | AUC (p/s * h) (luciferase (Luc) mRNA; Table 3H, intramuscular, Luc) | Lipid/MC3 AUC (luciferase (Luc) mRNA; Table 3H, intramuscular, Luc) | Novel lipid/MC3 expression ratio, 6 hr. time point, i.m. Luc (luciferase (Luc) mRNA; intramuscular) | % EE [1] | pKa ([2]; Table 6) | Luc expression upon intramuscular administration (luciferase (Luc) mRNA; Luc mRNA and H10 mRNA, doses of 0.001 and 0.01 mpk, in words) | fold increase in Luc expression over MC3 formulations (luciferase (Luc) mRNA; intramuscular administration, in words) | Fold increase in Luc expression relative to MC3, Intramuscular (0.001 mpk dose) (luciferase (Luc) mRNA; intramuscular) | Fold increase in Luc expression relative to MC3, Intramuscular (0.01 mpk dose) (luciferase (Luc) mRNA; intramuscular) | % Encapsulation [1, 3] | surface pKa ([2]; LNP, Example 26) | pKa [2, 3]
1 | CCCCCCCCCOC(=O)CCCCCCCN(CCCCCCCC(=O)OC(CCCCCCCC)CCCCCCCC)C[C@H](C)O [Compound 12, Heptadecan-9-yl (S)-8-((2-hydroxypropyl)(8-(nonyloxy)-8-oxooctyl)amino)octanoate] | 92.44% | lowest | lowest | 3.88 | 32.03 | 5.99 | 8.02E+04 p/s | 8.90E+05 p/s | – | – | – | – | – | – | – | – | – | – | – | –
2 | CCCCCCCCCOC(=O)CCCCCCCN(CCO)CCCCCCC(=O)OCC(CCCCCCCC)CCCCCCCC [Compound 143, Nonyl 8-((2-hydroxyethyl)(7-((2-octyldecyl)oxy)-7-oxoheptyl)amino)octanoate] | 97.37% | – | – | 6.245 | 209.63 | 6.47 | – | – | 2.29E+09 p/s * h | 3.89 | 4.05 | – | – | – | – | – | – | – | – | –
3 | CCCCCC/C=C\COC(=O)CCCCCCCN(CCO)CCCCCCCC(=O)OC(CCCCCCCC)CCCCCCCC [Compound 24, Heptadecan-9-yl (Z)-8_((2-hydroxyethyl) (8-(non-2-en-1-yloxy)-8-oxooctyl)amino)octanoate] | 97.16% | – | – | 163.53 | 1172.93 | 6.71 | 3.78E+06 p/s | 3.97E+07 p/s | – | – | – | 90.5% | – | – | – | – | – | – | – | –
4 | CCCCCCCCCOC(=O)CCCCCCCN(CCCCO)CCCCCCCC(=O)OC(CCCCCCCC)CCCCCCCC [Compound 20, Heptadecan-9-yl 8-((4-hydroxybutyl)(8-(nonyloxy)-8-oxooctyl)amino) octanoate] | 96.72% | – | highest | 126.83 | 2468.24 | 6.87 | 2.59E+07 p/s | – | – | – | 2.21 | 91.6% | 6.87 | highest expression at both dose levels; also recorded: equivalent expression to the high dose of MC3 | highest fold increase | 3.70 | 2.21 | – | – | –
5 | CCCCCCCCC(CCCCCCCC)OC(=O)CCCCCCCN(CCO)CCCCCCCC(=O)OC(CCCCCCCC)CCCCCCCC [Compound 29, Di(heptadecan-9-yl) 8,8′-((2-hydroxyethyl)azanediyl)dioctanoate] | 96.99% | – | – | 69.54 | 1362.81 | 6.00 | 7.64E+05 p/s | 1.12E+07 p/s | – | – | – | – | 6.00 | – | – | 0.11 | 0.25 | 97.0 ± 0.6% | 6.00 | 6.00 ± 0.24
6 | CCCCCCCCCCCCCCN(CCO)CCCCCCCC(=O)OC(CCCCCCCC)CCCCCCCC [Compound 2, Heptadecan-9-yl 8-((2-hydroxyethyl)(tetradecyl)amino)octanoate] | 93.88% | – | – | 70.95 | 468.86 | 6.73 | 3.55E+06 p/s | 6.16E+07 p/s | – | – | – | – | – | – | – | – | – | – | – | –
